Experiment [1] deals with ERα+/PR− tumors. As to conditions: follow-up period of 6 years, postmenopausal women; cited from earlier work.
In experiment [2] the test system is stage II invasive breast cancer. Briefly: Randomized premenopausal cohort: two years of adjuvant tamoxifen vs control, recurrence free survival (Kaplan-Meier, log-rank) by HMGCR IHC status. As to conditions: for outcome of HMGCR positive and ER negative patients vs HMGCR negative and ER positive patients: tamoxifen treated cohort. Format: in vivo, human. The source says: Between 1984 and 1991, 564 pre-menopausal women with primary breast cancer in the South and Southeast regions of Sweden were enrolled in a multi-centre clinical trial and randomly assigned to either two years of adjuvant tamoxifen (n=276) or a control group (n=288). […] The inclusion criteria were pre-menopausal patients, or patients younger than 50 years, with stage II (pT2 N0 M0, pT1-2 N1 M0) invasive breast cancer treated by modified mastectomy or breast conserving surgery with axillary lymph node dissection. Post-operative radiotherapy (50 Gy) was administered after breastconserving surgery and all lymph node-positive patients received locoregional radiotherapy. […] The study design is described in detail elsewhere (Rydén L et al, Eur J Cancer, 2005, 41(2): 256-64). Ethical permission was obtained from the Local Ethics Committees at Lund and Linköping Universities.
Tissue blocks from 500 of the 564 patients could be retrieved for TMA-construction. All cases had been histopathologically re-evaluated on hematoxylin and eosin stained slides. TMA:s were constructed by sampling 2×0.6 mm cores per case from areas representative of invasive cancer, using an manual arraying device (MTA-1, Beecher Inc, WI, USA). […] IHC staining of ER and PR had been performed previously. In line with current clinical praxis, a cut-off at 10% positive nuclei was used to define hormone receptor positively.
For statistical analyses, the cytoplasmic intensity (CI) level was evaluated, in line with what is described in Examples, Section 3 above. […] Two categories were defined: “HMGCR high” corresponding to CI=weak, moderate and strong and “HMGCR low” corresponding to CI=absent This classification of samples was used for RFS analysis according to the Kaplan-Meier estimator, and the log-rank test was used to compare survival in different strata. ER and PR negativity was defined as<10% positively staining nuclei, according to current clinical guidelines in Sweden. All statistical tests were two-sided, and p-values of<0.05 were considered significant. All calculations were made with the statistical package SPSS 17.0 (SPSS Inc. Illinois, USA).

In experiment [3] the test system is HMGCR mRNA. Briefly: qRT-PCR of HMGCR mRNA levels in MCF7 cells after Simvastatin/Tamoxifen treatment. Format: cell-based. As to conditions: five days, 10 μM Simvastatin or 100 nM Tamoxifen, FIG. 15. (In general: Real-time PCR tracks product formation cycle by cycle.)
Description: Total RNA was isolated using the mirVANA™ miRNA Isolation Kit (Ambion) and reverse transcribed using SuperScript II™ Reverse Transcriptase (Invitrogen) according to the manufacturer's instructions. […] Relative HMG-CoAR expression levels in breast cancer cell lines were calculated using the qBase real-time PCR relative quantification software with all samples normalized to 18s rRNA. Negative controls included a no template control and a no reverse transcriptase control. All qRT-PCR reactions were performed in triplicate.
Experiment [4] concerns HMGCR. As to conditions: MCF7 cells, five days, 10 μM Simvastatin, 100 nM Tamoxifen, or a combination of both, FIG. 14.
Experiment [5] deals with ERα. As to conditions: MCF7 cells, five days, 10 μM Simvastatin, 100 nM Tamoxifen, or a combination of both, FIG. 14.
Experiment [6] relates to breast cancer. As to conditions: 5 years tamoxifen compared to no adjuvant treatment; cited from earlier work.
For experiment [7], the system named is ERα positive breast cancer. The following applies: cited from earlier work.

The values that follow come from patent US20120053196A1, “Combination Treatment of Breast Cancer” (priority 2009, published 2012).

As to `CC(C)(C#N)c1cc(Cn2cncn2)cc(C(C)(C)C#N)c1` [anastrozole], the “recurrence rate compared to patients treated with tamoxifen” value in experiment [1] is “halved”.
Regarding `CC/C(=C(\c1ccccc1)c1ccc(OCCN(C)C)cc1)c1ccccc1` [tamoxifen], the “effect on RFS based on the HMGCR level” value in experiment [2] (ER negative tamoxifen treated subjects, FIG. 7a) was “positive effect on RFS”. The “RFS, HMGCR high category vs HMGCR low” value in experiment [2] (ER positive tamoxifen treated subjects, FIG. 2a) was “significantly better RFS”. Moreover, the “effect of tamoxifen treatment on RFS” value in experiment [2] (HMGCR negative and ER negative subjects, FIG. 10b) was “no positive effect”; in experiment [2] (HMGCR positive or ER positive subjects, FIG. 10a), “significantly positive effect”. Also, the “survival upon tamoxifen treatment vs no adjuvant endocrine treatment” value is “improved survival” in experiment [2] (HMGCR positive and ER negative subjects, FIG. 9a); “significantly improved survival” in experiment [2] (patients with HMGCR high tumors, irrespective of ER status, FIG. 8a); “no impact on survival” in experiment [2] (patients with HMGCR low tumors, irrespective of ER status, FIG. 8b). Besides, the “tamoxifen impact on survival (RFS)” value in experiment [2] (HMGCR positive and PR negative subjects, FIG. 12, not statistically significant) is “trend of tamoxifen impact on survival”. The “response to tamoxifen treatment (RFS)” value in experiment [2] (PR negative and HMGCR negative subjects, FIG. 11b) is recorded as “no response”; in experiment [2] (PR positive and HMGCR positive subjects, FIG. 11a) it was “significant response”. In addition, the “RFS associated with HMGCR expression” value in experiment [2] (lymph node positive patients who received tamoxifen, FIG. 4a) was “improved RFS”. Moreover, in experiment [2] (node negative subgroups treated with tamoxifen, FIGS. 4b and 5b, too few patients for significance), the “survival of HMGCR positive subjects” value is recorded as “trend of better survival”. Further, the “outcome of HMGCR positive and ER negative patients vs HMGCR negative and ER positive patients” value in experiment [2] (node positive subjects, FIG. 6a) is listed as “better outcome”; in experiment [2] (FIG. 3a), “better outcome”. Besides, the “recurrence free survival (RFS), HMGCR high category vs HMGCR low category” value in experiment [2] (patients treated with adjuvant tamoxifen, FIG. 1a) is recorded as “significantly better RFS”. Moreover, the “HMGCR levels of mRNA after treatment” value in experiment [3] was “slight increase”. Besides, the “HMGCR expression (Western blot)” value in experiment [4] is “slight HMGCR expression”. In addition, the “ERα expression (Western blot)” value in experiment [5] is reported as “no ERα expression”. Besides, the “reduction in breast cancer specific mortality” value in experiment [6] was 34%. In addition, in experiment [6], the “reduction in disease recurrence” value is given as 41%. Also, in experiment [7], the “fraction of patients who do not respond to tamoxifen treatment” value is 30-40%.
